The source made the active and inactive calls.
Key:
[1] = inhibitors of Vif binding to APOBEC3G peptide, primary screen, biochemical, TR-FRET, GST-Vif 1-94, biotin-A3G peptide, dose response retest (AID 1117319); type: functional;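 also: TR-FRET signal of purified GST-Vif binding a biotinylated A3G peptide; inhibitors lower the FRET signal by blocking Vif and A3G binding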
[2] = target: Voltage-dependent T-type calcium channel subunit alpha-1H (Homo sapiens, UniProt O95180); type: functional;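 also: channel activity triggered by adding a high calcium stimulation buffer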
[3] = target: Peroxisome proliferator-activated receptor gamma/Nuclear receptor coactivator 2 (Homo sapiens, UniProt P37231); type: functional;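 also: agonist potency for raising coactivator recruitment to the receptor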
[4] = target: Peroxisome proliferator-activated receptor gamma/Nuclear receptor coactivator 3 (Homo sapiens, UniProt P37231); type: functional;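 also: agonist potency for raising coactivator recruitment to the receptor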
[5] = target: Peroxisome proliferator-activated receptor gamma/Nuclear receptor coactivator 1 (Homo sapiens, UniProt P37231); type: functional;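 also: agonist potency as compounds enhance coactivator SRC-1 recruitment to PPARgamma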
[6] = HepG2 cell cytotoxicity, dose response, cytotoxicity control, plate reader, cherry-pick, antagonist series (AID 743416); type: functional, cell-based
[7] = LGR2 antagonists, dose response, cell-based, HEK293, CRE-luciferase reporter, cherry pick, set 2 (AID 743343); type: functional;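 also: transfected cells were stimulated with diluted bursicon conditioned medium after compound addition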
[8] = MC4R antagonists, dose response, counter-screen for LGR2 antagonist project, cell-based, plate reader, cherry pick (AID 743444); type: functional;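 also: transfected HEK 293 cells stimulated with alpha-MSH peptide; potency of inhibitors of the alpha-MSH evoked signal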
[9] = Counterscreen for inhibitors of Trypanosoma brucei methionyl tRNA synthetase (MetRS): Luminescence-based cell-based high throughput dose response assay to identify compounds that are cytotoxic to Jurkat human T lymphocyte cells.; type: functional
[10] = target: T1, Methionyl-tRNA synthetase, putative (Trypanosoma brucei brucei, UniProt Q38C91); type: functional, Trypanosoma brucei brucei strain 927/4 GUTat10.1;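 also: Read-out by fluorescence polarization, run as a confirmatory high-throughput counterscreen; potency of MetRS inhibitors measured by reduced AMP formation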
T1 sequence (Q38C91 whole entry): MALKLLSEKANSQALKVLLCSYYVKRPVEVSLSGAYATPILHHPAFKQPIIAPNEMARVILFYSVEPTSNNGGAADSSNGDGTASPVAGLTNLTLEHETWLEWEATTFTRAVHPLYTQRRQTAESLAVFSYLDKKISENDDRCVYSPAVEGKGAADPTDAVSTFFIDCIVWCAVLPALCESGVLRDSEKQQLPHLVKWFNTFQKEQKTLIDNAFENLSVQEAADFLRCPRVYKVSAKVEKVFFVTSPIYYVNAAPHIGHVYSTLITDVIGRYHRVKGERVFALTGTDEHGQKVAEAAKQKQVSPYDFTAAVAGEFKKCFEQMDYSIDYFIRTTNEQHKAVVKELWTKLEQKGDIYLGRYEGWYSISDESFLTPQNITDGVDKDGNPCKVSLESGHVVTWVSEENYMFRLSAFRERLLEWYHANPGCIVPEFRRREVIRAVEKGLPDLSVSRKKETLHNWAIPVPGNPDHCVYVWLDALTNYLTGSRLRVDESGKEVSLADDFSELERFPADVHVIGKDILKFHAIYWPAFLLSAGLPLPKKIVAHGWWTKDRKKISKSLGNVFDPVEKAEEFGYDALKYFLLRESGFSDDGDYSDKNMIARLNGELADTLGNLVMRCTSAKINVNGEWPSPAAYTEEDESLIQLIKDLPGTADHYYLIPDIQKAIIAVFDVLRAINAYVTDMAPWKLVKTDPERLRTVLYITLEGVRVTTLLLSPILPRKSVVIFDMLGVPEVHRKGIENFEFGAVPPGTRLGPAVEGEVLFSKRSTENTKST

Beta-galactosidase = Beta-galactosidase (Escherichia coli, UniProt Q8VNN2); experiment: Dose response counterscreen for EBI2 assay utilizing the enzyme, b-galactosidase.; type: functional
[11] = target: Eukaryotic translation initiation factor 4E (Mus musculus, UniProt P63073); experiment: eIF4E–eIF4G protein interaction inhibitors, dose response, biochemical, TR-FRET (AID 855); type: functional;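 also: potency for disrupting eIF4E binding to eIF4GI seen as loss of FRET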
[12] = target: T2, Ubiquitin-conjugating enzyme E2 N (Homo sapiens, UniProt P61088); type: functional;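 also: Dose-response confirmation in a TR-FRET assay detecting UBC13-driven polyubiquitin chain formation, inhibition measured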
T2 sequence (P61088 whole entry): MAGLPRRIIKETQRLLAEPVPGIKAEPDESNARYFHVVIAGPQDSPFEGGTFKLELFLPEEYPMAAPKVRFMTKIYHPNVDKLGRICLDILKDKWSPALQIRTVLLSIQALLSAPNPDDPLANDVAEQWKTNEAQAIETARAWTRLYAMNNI

[13] = target: T3, DNA repair and recombination protein RAD54-like (Homo sapiens, UniProt Q92698); experiment: inhibitors of human RAD54 branch migration, confirmation, biochemical, fluorescence, cherry-picked samples, dose series (AID 651657); type: functional
T3 sequence (Q92698 whole entry): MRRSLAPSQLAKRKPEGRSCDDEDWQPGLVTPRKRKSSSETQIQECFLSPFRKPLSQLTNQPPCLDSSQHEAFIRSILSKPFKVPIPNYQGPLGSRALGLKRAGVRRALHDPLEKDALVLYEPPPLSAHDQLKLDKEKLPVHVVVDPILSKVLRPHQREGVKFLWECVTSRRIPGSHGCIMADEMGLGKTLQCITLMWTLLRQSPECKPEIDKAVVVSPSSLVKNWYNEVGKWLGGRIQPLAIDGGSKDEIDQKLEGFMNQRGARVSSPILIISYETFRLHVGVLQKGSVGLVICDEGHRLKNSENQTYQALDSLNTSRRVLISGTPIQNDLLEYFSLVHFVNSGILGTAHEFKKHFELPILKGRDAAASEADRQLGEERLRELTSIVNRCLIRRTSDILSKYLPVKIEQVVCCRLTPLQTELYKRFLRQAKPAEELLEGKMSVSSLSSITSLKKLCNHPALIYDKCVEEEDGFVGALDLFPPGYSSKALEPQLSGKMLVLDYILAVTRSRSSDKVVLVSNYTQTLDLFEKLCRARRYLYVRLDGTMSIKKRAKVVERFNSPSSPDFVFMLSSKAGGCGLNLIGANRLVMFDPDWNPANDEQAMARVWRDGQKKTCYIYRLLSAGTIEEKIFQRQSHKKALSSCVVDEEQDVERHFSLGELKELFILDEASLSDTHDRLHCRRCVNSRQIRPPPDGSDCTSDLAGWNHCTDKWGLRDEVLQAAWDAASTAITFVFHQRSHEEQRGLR

[14] = target: T4, DNA repair protein RAD52 homolog (Homo sapiens, UniProt P43351); type: functional, biochemical
T4 sequence (P43351 whole entry): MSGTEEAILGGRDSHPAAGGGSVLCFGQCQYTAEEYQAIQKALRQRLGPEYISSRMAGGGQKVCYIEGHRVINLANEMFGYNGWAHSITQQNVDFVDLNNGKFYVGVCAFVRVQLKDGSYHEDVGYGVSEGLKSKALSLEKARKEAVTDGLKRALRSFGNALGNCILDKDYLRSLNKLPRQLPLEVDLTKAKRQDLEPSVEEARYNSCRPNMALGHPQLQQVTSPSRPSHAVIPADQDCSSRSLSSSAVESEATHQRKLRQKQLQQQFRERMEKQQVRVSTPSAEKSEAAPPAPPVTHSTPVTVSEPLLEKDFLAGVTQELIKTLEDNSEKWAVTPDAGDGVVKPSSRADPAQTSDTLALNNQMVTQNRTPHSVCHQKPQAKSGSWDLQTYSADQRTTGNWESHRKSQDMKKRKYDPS

Cytochrome P450 3A4 = Cytochrome P450 3A4 (Homo sapiens, UniProt P08684);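 also: CYP3A4 tested as one member of a cytochrome P450 panel screen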
Estrogen receptor beta [15] = target: T5, Estrogen receptor beta (Homo sapiens, UniProt Q92731); experiment: ERβ–SRC-3 coactivator interaction inhibitors, confirmation, orthogonal assay, biochemical, ELISA, streptavidin-HRP readout (AID 1060)
Cytochrome P450 2C9 = Cytochrome P450 2C9 (Homo sapiens, UniProt P11712)
Estrogen receptor beta [16] = target: T5, Estrogen receptor beta
Estrogen receptor = target: T6, Estrogen receptor (Homo sapiens, UniProt P03372);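 also: potency for inhibiting coactivator peptide recruitment to the receptor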
T6 sequence (P03372 whole entry): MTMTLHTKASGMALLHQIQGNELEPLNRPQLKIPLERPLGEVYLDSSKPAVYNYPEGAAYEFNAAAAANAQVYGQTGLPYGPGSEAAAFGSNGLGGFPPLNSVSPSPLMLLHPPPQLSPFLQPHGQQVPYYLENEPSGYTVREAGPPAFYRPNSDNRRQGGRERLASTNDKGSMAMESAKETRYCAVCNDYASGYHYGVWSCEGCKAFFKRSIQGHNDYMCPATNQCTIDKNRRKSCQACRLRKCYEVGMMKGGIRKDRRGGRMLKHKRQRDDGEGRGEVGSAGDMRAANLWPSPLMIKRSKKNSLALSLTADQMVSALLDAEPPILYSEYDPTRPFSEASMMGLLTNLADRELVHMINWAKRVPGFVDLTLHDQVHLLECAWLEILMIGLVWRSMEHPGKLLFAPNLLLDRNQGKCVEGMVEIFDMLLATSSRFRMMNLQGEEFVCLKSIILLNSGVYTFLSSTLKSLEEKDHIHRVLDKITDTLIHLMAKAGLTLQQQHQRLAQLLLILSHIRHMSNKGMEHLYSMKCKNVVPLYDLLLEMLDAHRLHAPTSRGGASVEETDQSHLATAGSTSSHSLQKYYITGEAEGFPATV

[17] = target: DNA dC->dU-editing enzyme APOBEC-3G (Homo sapiens, UniProt Q9HC16); type: functional;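 also: Dose-response counterscreen measuring inhibition of APOBEC3G DNA deaminase activity, run while confirming APOBEC3A inhibitors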
[18] = target: DNA dC->dU-editing enzyme APOBEC-3A (Homo sapiens, UniProt P31941); experiment: Dose Response confirmation of small molecule APOBEC3A DNA Deaminase Inhibitors via a fluorescence-based single-stranded DNA deaminase assay. [Related pubchem assays (depositor defined):AID493011, AID493024]; type: functional
[19] = NIH-3T3 fibroblast cytotoxicity, dose response, cytotoxicity control, cell-based, fluorescence, Alamar Blue, secondary assay (AID 2327); type: functional;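 also: NIH-3T3 mouse fibroblasts cultured with fluconazole at 8 µg/mL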
[20] = C. albicans growth with fluconazole, confirmation, fluorescence, retest (AID 2467); type: functional, cell-based

Beta-galactosidase, sequence (Q8VNN2 whole entry): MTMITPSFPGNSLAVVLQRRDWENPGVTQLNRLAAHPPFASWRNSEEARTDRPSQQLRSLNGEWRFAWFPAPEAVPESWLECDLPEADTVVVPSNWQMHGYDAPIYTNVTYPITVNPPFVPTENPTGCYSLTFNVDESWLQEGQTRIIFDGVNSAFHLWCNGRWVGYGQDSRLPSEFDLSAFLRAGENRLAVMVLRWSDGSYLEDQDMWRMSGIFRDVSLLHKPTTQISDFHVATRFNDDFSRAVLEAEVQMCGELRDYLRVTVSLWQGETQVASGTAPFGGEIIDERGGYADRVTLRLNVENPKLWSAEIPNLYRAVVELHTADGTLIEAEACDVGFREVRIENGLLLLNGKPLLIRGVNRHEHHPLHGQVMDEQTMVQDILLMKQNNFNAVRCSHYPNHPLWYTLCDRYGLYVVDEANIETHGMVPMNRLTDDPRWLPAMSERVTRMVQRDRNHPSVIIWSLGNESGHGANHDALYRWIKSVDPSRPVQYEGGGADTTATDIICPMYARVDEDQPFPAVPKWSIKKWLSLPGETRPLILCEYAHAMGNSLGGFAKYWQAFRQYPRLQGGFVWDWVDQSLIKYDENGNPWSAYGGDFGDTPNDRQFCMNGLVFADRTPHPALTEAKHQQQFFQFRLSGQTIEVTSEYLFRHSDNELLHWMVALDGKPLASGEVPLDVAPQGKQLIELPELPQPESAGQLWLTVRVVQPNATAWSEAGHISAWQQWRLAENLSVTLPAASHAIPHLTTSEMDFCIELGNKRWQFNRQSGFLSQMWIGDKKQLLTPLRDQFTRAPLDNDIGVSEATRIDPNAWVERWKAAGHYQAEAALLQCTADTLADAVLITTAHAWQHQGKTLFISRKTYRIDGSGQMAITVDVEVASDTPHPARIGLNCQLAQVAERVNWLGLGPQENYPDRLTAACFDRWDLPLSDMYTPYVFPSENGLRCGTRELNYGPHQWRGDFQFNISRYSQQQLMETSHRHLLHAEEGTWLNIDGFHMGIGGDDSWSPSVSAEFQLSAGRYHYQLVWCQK
Voltage-dependent T-type calcium channel subunit alpha-1H, sequence (O95180 whole entry): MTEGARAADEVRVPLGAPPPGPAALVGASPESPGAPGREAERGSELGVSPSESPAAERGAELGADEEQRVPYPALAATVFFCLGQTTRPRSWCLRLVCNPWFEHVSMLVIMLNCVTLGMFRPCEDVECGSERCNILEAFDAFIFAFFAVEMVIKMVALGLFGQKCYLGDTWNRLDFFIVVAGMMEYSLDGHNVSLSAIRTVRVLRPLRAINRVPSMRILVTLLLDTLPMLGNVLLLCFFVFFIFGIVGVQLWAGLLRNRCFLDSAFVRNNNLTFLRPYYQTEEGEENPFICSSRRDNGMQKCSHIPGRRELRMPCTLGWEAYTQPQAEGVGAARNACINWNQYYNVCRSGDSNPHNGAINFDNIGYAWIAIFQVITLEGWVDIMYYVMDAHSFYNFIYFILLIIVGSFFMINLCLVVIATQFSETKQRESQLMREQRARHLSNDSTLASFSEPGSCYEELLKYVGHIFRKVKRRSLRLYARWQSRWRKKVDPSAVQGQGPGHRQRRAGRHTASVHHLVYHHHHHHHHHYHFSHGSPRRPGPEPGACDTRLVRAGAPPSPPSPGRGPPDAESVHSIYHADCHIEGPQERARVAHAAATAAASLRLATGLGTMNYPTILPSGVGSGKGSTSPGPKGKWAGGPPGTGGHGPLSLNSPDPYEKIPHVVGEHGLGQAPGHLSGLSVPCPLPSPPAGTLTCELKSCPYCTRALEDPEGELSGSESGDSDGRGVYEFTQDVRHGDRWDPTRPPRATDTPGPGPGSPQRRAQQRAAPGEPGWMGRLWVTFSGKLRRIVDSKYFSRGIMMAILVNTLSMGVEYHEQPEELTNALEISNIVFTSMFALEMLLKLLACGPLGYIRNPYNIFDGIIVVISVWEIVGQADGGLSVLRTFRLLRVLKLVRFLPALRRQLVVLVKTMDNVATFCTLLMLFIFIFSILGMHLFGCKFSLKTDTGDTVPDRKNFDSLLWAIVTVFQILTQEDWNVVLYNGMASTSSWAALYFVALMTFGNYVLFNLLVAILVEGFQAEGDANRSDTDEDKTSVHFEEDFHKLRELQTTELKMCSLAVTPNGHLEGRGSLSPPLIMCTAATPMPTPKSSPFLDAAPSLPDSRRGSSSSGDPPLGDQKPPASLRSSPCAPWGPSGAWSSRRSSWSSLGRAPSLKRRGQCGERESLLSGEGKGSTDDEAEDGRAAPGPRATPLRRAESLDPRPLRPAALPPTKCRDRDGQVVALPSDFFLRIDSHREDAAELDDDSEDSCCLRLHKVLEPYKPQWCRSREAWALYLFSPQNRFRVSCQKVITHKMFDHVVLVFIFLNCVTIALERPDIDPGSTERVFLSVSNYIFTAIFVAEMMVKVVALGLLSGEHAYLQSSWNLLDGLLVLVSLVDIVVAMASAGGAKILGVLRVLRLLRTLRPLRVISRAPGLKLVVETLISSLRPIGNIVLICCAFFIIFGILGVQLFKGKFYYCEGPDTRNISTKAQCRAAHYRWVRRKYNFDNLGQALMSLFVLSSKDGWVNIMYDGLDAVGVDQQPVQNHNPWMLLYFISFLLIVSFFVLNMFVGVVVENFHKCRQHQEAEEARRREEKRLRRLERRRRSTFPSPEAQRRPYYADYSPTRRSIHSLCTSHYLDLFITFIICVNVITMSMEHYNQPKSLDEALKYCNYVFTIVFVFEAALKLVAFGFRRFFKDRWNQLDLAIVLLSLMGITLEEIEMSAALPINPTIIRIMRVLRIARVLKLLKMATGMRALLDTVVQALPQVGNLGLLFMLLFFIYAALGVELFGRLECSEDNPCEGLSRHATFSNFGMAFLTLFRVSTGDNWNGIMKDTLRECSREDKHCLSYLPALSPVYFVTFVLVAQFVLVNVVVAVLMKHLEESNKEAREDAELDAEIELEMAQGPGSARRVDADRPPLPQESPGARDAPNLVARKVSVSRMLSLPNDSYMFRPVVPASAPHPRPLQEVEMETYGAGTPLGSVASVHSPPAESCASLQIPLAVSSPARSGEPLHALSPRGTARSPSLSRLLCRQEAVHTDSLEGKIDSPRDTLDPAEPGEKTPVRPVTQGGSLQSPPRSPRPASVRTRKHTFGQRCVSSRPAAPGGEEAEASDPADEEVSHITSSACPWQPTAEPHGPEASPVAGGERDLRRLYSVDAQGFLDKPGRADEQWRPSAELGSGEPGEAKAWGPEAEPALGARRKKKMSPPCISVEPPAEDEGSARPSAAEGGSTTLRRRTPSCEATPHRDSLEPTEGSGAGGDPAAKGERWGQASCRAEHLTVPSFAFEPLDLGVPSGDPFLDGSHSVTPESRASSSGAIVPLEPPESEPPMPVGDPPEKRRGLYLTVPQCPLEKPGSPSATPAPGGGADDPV
T5 sequence (Q92731 whole entry): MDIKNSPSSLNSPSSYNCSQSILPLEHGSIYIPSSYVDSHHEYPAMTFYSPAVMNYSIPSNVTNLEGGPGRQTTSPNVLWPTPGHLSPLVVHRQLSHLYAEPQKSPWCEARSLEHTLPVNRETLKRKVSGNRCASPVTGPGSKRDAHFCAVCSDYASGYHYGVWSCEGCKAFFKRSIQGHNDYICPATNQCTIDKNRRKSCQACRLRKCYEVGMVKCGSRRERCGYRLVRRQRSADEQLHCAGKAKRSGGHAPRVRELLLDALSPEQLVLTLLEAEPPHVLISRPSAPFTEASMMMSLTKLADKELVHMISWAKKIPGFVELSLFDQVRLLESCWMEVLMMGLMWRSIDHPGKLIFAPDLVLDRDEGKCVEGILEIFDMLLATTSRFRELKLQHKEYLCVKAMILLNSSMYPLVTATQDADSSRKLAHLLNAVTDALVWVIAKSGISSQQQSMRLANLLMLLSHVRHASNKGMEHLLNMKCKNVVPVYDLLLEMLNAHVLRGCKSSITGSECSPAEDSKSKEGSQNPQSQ
Cytochrome P450 3A4, sequence (P08684 whole entry): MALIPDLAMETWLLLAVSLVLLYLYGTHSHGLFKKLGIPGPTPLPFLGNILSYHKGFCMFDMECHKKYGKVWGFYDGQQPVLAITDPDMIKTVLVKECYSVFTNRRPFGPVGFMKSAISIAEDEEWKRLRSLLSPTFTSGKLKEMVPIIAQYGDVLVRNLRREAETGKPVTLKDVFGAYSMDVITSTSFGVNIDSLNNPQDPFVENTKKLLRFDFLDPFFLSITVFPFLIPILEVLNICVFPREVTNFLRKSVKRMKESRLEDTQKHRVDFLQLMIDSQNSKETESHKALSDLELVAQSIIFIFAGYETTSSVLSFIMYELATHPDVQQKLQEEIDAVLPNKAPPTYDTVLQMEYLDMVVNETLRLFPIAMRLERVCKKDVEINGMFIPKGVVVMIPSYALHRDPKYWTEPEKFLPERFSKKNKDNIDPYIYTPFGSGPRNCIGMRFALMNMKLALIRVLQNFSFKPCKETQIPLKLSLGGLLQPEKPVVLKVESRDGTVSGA
Eukaryotic translation initiation factor 4E, sequence (P63073 whole entry): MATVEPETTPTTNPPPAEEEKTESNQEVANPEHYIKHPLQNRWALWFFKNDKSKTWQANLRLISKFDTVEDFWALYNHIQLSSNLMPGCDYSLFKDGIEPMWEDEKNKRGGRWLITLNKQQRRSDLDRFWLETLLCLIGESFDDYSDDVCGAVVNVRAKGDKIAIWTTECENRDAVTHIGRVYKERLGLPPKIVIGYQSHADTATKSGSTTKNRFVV
DNA dC->dU-editing enzyme APOBEC-3A, sequence (P31941 whole entry): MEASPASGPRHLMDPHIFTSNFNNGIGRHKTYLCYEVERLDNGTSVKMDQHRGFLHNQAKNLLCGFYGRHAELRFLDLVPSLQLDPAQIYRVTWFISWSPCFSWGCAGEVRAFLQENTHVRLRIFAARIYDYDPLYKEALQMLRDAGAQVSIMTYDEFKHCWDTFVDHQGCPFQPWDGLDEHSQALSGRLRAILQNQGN

SMILES: CCOC(=O)CN1C(=O)C(Sc2n[nH]c(-c3ccccc3)n2)CCc2ccccc21 (stereo not given)
- IC50 [1]: > 100 µM (active)

SMILES: O=C(Nc1nc(-c2cccs2)cs1)c1cccc(S(=O)(=O)N2CCCCC2)c1
- EC50 [2]: 4.13 µM (active)

SMILES: CCOC(=O)c1sc(NC(=O)CSc2nnnn2-c2ccc(C)c(C)c2)nc1C
- EC50 [3]: 77.4 µM (not active)
- EC50 [4]: > 79.4 µM (not active)
- EC50 [5]: > 79.4 µM (not active)

SMILES: CC1CCCN(c2ncnc3c2cnn3-c2ccccc2)C1 (stereo not given)
- AC50 [6]: > 52 µM (inactive)
- AC50 [7]: 2.89 µM (active)
- AC50 [8]: 6.32 µM (active)

SMILES: CCN(CC)CCN(Cc1cc2cc3c(cc2[nH]c1=O)OCCO3)C(=O)NC1CCCCC1
- EC50 [3]: > 79.4 µM (not active)
- EC50 [4]: > 79.4 µM (not active)
- EC50 [5]: > 79.4 µM (not active)

SMILES: Cc1csc(CNc2ncnc3ccc(-c4ccccc4Cl)cc23)c1
- IC50 [9]: 83.3 µM (inactive)
- IC50 [10]: 97.8 µM (inactive)

SMILES: O=C(CCCOc1ccccc1)N1CCN(c2ccccc2)CC1
- EC50 [2]: 13.9 µM (active)

SMILES: Cc1[nH]c(-c2ccc(F)cc2)cc1C(=O)N1CCN(c2ccccc2F)CC1
- IC50 (Beta-galactosidase): > 80 µM (inactive)

SMILES: CC(C)n1c(CCC(=O)O)ccc1-c1ccccc1
- IC50 [1]: > 100 µM (active)

SMILES: CCN(CC)S(=O)(=O)c1ccc(C(=O)NCCSc2c[nH]c3ccccc23)cc1
- EC50 [2]: 3.87 µM (active)

SMILES: Cc1ccc(N2C(=O)c3ccccc3C2(O)c2ncc[nH]2)cc1 (stereo not given)
- IC50 [11]: > 64 µM (inactive)

SMILES: Fc1ccccc1CSc1nc2ncc(Br)cc2[nH]1
- EC50 [3]: 24.2 µM (not active)
- EC50 [4]: 49.5 µM (not active)
- EC50 [5]: 36.8 µM (not active)
- IC50 [10]: 82.2 µM (inactive)

SMILES: CCCCN(CC)CCNC(=O)c1cc2c(=O)n(C)c3ccccc3c2n1C
- IC50 [12]: > 20 µM (inactive)
- AC50 [13]: 32.3 µM (active)

SMILES: N=c1c(C(=O)NCCN2CCOCC2)cc2c(=O)n3ccccc3nc2n1CCCN1CCOCC1
- AC50 [14]: 5.36 µM (active)
- AC50 [13]: 11.5 µM (active)

SMILES: O=C(COc1ccc(Br)cc1)N1CCC(c2ccccc2)C1 (stereo not given)
- AC50 (Cytochrome P450 3A4): 28.2 µM (inconclusive)
- IC50 (Beta-galactosidase): > 80 µM (inactive)

SMILES: CCn1c(CSc2nc3ccccc3s2)nc2ccccc21
- EC50 [2]: 5.73 µM (active)

SMILES: Cc1ccc(C(C)C)c(OCCN(C)C)c1
- IC50 [1]: > 100 µM (active)

SMILES: O=C1NC(c2ccc(Br)cc2)Nc2sc3c(c21)CCC3 (stereo not given)
- AC50 (Cytochrome P450 3A4): 28.2 µM (inconclusive)
- IC50 (Estrogen receptor beta [15]): < 0.023 µM (not active)
- AC50 (Cytochrome P450 2C9): 6.31 µM (inconclusive)
- IC50 (Estrogen receptor beta [16]): > 50 µM (not active)
- IC50 (Estrogen receptor): 19.4 µM (active)

SMILES: Cc1ccc(C)c(SCC(=O)OCC(=O)c2ccco2)c1
- IC50 [17]: 46.3 µM (active)
- IC50 (Estrogen receptor beta [15]): 0.0912 µM (not active)
- IC50 [18]: 18 µM (active)
- IC50 (Estrogen receptor beta [16]): 6.74 µM (active)
- IC50 (Estrogen receptor): > 50 µM (not active)

SMILES: O=C1C=C(Nc2ccc(Cl)cc2)CC(c2ccc(Cl)cc2)C1 (stereo not given)
- AC50 (Cytochrome P450 3A4): 20 µM (inconclusive)
- IC50 (Beta-galactosidase): > 80 µM (inactive)

SMILES: O=C(/C=C/c1ccc(F)cc1)N1CCN(c2ccccn2)CC1
- IC50 (Beta-galactosidase): > 80 µM (inactive)
- EC50 [19]: > 160 µM (inactive)
- EC50 [20]: 2.94 µM (active)

SMILES: CCOC(=O)c1s/c(=N\C(=O)c2cccc(OC)c2)n(C)c1C
- EC50 [3]: 10.5 µM (not active)
- EC50 [4]: 15.2 µM (not active)
- EC50 [5]: 11 µM (not active)

SMILES: CCCCCCCCCC(=O)N/N=C/c1ccc(C)s1
- IC50 [11]: > 64 µM (inactive)

SMILES: CC1=CCC(/C=N\Nc2n[nH]c3c4ccccc4nc-3n2)CC1 (stereo not given)
- IC50 [1]: > 100 µM (active)

Reference: ChEMBL document CHEMBL1201862, “PubChem BioAssay data set” (2004)
